Results as given in US8846363B2, “Compositions of and methods of using sulfatases from Flavobacterium heparinum” (priority 2007, dated 2014).
“Also recorded” adds a separate entry of the source.

Assays:
[1] = molecular target: T1, Flavobacterium heparinum 6-O-sulfatase (ORF B), recombinant, NH2-terminal truncation lacking signal sequence, SEQ ID NO: 2 (Pedobacter heparinus, UniProt C6Y1N4); assay: Inhibition of 6-O-sulfatase activity (sulfate, phosphate, chelators); type: biochemical
T1 construct: E. coli BL21(DE3), N-terminal 6xHis removed by thrombin
Experimental: Results are normalized to 0.0 M NaCl added (which is shown as 100%). 6-O-sulfatase (●); N-sulfamidase (◯). […] Results for 6-O-sulfatase are represented by a solid line; results for N-sulfamidase are represented by a dashed line. […] Log scale for inhibitor concentration, [I]. […] Relative activities (% desulfation) were measured over a pH range of 4-8 using three buffers: sodium acetate (●), MES (◯) and MOPS (▴).
Open bars (no divalent metals added); black bars (1 mM EDTA added); light gray bars (1 mM divalent metal); stippled gray bars (5 mM divalent metal). […] Enzyme kinetics were measured for the 6-O-sulfatase (FIG. 8C) and N-sulfamidase (FIG. 8D) as described in Materials and Methods at varying concentrations of Ca^+2 or in the presence of 1 mM EDTA. Substrate saturation plots were fitted to pseudo first-order Michaelis-Menten kinetics by non-linear regression analyses. 0.5 mM Ca^+2 (●), 1 mM Ca^+2 (◯), 5 mM Ca^+2 (▪), 1 mM EDTA (Δ).
Indirect measurement of enzyme activity was also made using a fluorimetrically-based plate assay in which the prerequisite desulfation of the appropriate glucopyranoside 1→4 methlybelliferone substrate by either the 6-O-sulfatase or N-sulfamidase was coupled to the glucosidase-mediated hydrolysis of the stereo-specific 1→4 glycosidic linkage between the pyranose ring and the adjoining fluorophore. Release of the free fluorophore (4-MU) was monitored spectroscopically as described above for the arylsulfatase assay using 4-MU sulfate. The two sulfatase assays differed in the choice of substrate in accordance to their specificity as well as the glucosidase added during the second, rate-limiting step. […] Reaction conditions were optimized to satisfy three related criteria: 1) linear readout of fluorescent signal which is directly proportional to sulfatase activity; 2) quantitative release of 4-MU by glucosidase activity under every biochemical condition examined and; 3) negligible fluorescent quenching of the free chromophore. […]

[2] = molecular target: T2, Flavobacterium heparinum N-sulfamidase (ORF C), recombinant, NH2-terminal truncation lacking signal sequence, SEQ ID NO: 4 (Pedobacter heparinus, UniProt C6Y1N3); assay: Inhibition of N-sulfamidase activity (sulfate, phosphate, chelators); type: biochemical
T2 construct: E. coli BL21(DE3), N-terminal 6xHis removed by thrombin
T2 sequence (C6Y1N3 entry or part of it): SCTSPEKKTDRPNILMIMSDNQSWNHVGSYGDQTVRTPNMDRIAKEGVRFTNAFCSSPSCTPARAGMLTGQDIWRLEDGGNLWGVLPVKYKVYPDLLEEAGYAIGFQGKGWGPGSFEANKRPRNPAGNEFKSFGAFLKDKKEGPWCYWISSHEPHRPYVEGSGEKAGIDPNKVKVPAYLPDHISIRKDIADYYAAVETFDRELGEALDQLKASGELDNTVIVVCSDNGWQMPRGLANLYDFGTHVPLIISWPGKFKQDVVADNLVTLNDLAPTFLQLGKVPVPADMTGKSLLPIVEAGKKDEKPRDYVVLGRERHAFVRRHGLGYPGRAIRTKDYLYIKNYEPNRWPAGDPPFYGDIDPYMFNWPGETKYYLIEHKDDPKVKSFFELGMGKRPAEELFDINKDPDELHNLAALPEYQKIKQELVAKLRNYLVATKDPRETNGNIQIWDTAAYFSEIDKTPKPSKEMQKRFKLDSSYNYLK
Experimental: Results are normalized to 0.0 M NaCl added (which is shown as 100%). […] Relative activities (% desulfation) were measured over a pH range of 4-8 using three buffers: sodium acetate (●), MES (◯) and MOPS (▴).
Enzyme kinetics were measured for the 6-O-sulfatase (FIG. 8C) and N-sulfamidase (FIG. 8D) as described in Materials and Methods at varying concentrations of Ca^+2 or in the presence of 1 mM EDTA. Substrate saturation plots were fitted to pseudo first-order Michaelis-Menten kinetics by non-linear regression analyses.
Indirect measurement of enzyme activity was also made using a fluorimetrically-based plate assay in which the prerequisite desulfation of the appropriate glucopyranoside 1→4 methlybelliferone substrate by either the 6-O-sulfatase or N-sulfamidase was coupled to the glucosidase-mediated hydrolysis of the stereo-specific 1→4 glycosidic linkage between the pyranose ring and the adjoining fluorophore. Release of the free fluorophore (4-MU) was monitored spectroscopically as described above for the arylsulfatase assay using 4-MU sulfate. The two sulfatase assays differed in the choice of substrate in accordance to their specificity as well as the glucosidase added during the second, rate-limiting step. For the 6-O-sulfatase, the hydrolysis of the substrate 4-MU-β-D-GlcNAc,6S at the 6-OH position was coupled to β-glucosidase purified from sweet almonds (MP Biomedicals, Solon, Ohio, Catalog No. 195197). Likewise, N-sulfamidase hydrolysis of 4-MU-α-D-GlcNS at the 2-amino position was coupled to α-glucosidase (MP Biomedicals, Catalog No. 153487). […] The presumption of the first (sulfatase) activity being the rate-limiting step was established experimentally. Reaction conditions were optimized to satisfy three related criteria: 1) linear readout of fluorescent signal which is directly proportional to sulfatase activity; 2) quantitative release of 4-MU by glucosidase activity under every biochemical condition examined and; 3) negligible fluorescent quenching of the free chromophore.
Coupled N-sulfamidase assay was generally described for the 6-O-sulfatase, but with the following modifications: 4-MU-GlcNS as substrate, 50 mM sodium acetate at pH 6.0 (instead of 5.5) and 1 μM enzyme. For the second enzyme step, 5 units of α-glucosidase were added. Enzyme incubation was carried out for 22 hours at 37° C. […] All other reaction conditions were as described for the coupled 6-O-sulfatase/β-glucosidase assay.
Having identified chromogenic substrates for each recombinant sulfatase, these substrates were also used to further develop a fluorescence-based plate assay as the means to define the optimal in vitro reaction conditions for each sulfatase.

T1 sequence (C6Y1N4 entry or part of it): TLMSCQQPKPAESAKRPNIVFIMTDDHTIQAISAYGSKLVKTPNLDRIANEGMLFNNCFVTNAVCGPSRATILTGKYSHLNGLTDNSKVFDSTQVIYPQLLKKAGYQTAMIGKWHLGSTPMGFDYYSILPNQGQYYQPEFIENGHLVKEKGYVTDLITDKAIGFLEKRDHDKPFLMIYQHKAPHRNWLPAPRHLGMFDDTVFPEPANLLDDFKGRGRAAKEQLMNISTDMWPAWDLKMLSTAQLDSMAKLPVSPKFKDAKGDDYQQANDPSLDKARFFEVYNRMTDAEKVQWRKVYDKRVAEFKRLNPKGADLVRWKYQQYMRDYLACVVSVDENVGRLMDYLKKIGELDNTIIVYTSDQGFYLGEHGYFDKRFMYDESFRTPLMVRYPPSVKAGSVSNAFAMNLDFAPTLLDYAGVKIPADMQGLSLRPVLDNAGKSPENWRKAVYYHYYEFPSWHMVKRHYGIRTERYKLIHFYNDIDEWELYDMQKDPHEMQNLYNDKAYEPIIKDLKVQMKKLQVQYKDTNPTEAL

O=C(O)CN(CCN(CC(=O)O)CC(=O)O)CC(=O)O [EDTA, ethylenediaminetetracetic acid]
6-O-sulfatase activity in the presence of EDTA ([1]; 1 mM EDTA): somewhat active
N-sulfamidase activity in the presence of EDTA ([2]; 1 mM EDTA): lack of activity

phosphate
inhibition of N-sulfamidase by sulfate or phosphate [2]: largely uninhibited; also recorded: not apparently inhibited

O=S(=O)(O)O [sulfate]
IC50 ([1]; normalized to 0 sulfate or phosphate added, read-out: concentration for 50% inhibition of 6-O-sulfatase activity): ~20 mM
inhibition of N-sulfamidase by sulfate or phosphate [2]: largely uninhibited; also recorded: not apparently inhibited

O=C(O)CN(CCOCCOCCN(CC(=O)O)CC(=O)O)CC(=O)O [EGTA]
effect on 6-O-sulfatase specific activity ([1]; EGTA, same conditions as N-sulfamidase (5 mM Ca^2+)): no appreciable effect
